Read-outs that look alike come from different tables or passages of the source.
How the values were obtained:
[1] = target: T1, wild-type Pseudomonas sp. strain CBS3 4-HB-CoA thioesterase (Pseudomonas sp., UniProt P56653); assay: Steady-state product inhibition of thioesterase-catalyzed hydrolysis of 4-HB-CoA; format: biochemical
T1 sequence (P56653 1-141): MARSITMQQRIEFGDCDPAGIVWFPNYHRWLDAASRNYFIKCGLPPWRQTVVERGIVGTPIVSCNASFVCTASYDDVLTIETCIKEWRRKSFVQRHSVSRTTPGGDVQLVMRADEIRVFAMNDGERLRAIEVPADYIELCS

[2] = target: T1, wild-type Pseudomonas sp. strain CBS3 4-HB-CoA thioesterase; assay: Steady-state kinetic constants; format: biochemical; settings: substrate hydrolysis, pH 7.5, 25 °C
[3] = target: T1, wild-type Pseudomonas sp. strain CBS3 4-HB-CoA thioesterase; assay: kcat pH rate profiles in H2O and D2O, solvent kinetic isotope effect on kcat; format: biochemical; settings: for C1 (pH independent kcat plateau) / C2 (pH independent kcat plateau) / first break in kcat pH profile / second break in kcat pH profile: fit to equation 4
[4] = target: T1, wild-type Pseudomonas sp. strain CBS3 4-HB-CoA thioesterase; assay: Ligand binding to wild-type thioesterase by stopped-flow fluorescence quenching; settings: for kobs (apparent pseudo-first order binding rate constant): 0.54 µM thioesterase; for koff: read-out: koff (dissociation rate constant); for kon: read-out: kon (association rate constant)
D17N thioesterase = settings: inert D17N thioesterase complex, steady-state fluorescence quenching; ref [5]; cited from earlier work
[5] = target: T1, wild-type Pseudomonas sp. strain CBS3 4-HB-CoA thioesterase; format: biochemical
[6] = target: T1, wild-type Pseudomonas sp. strain CBS3 4-HB-CoA thioesterase; format: biochemical; remark: listed apart in the source
[7] = target: T1, wild-type Pseudomonas sp. strain CBS3 4-HB-CoA thioesterase; assay: Steady-state multiple-turnover time courses; format: biochemical
[8] = conjugate acid of the CoA thiolate anion leaving group; source not stated; cited from earlier work

## O=C(O)c1ccc(O)cc1 [4-HB, 4-hydroxybenzoate]
[1]
  Ki: 1200 ± 200 µM

## CC(C)(COP(=O)(O)OP(=O)(O)OC[C@H]1O[C@@H](n2cnc3c(N)ncnc32)[C@H](O)[C@@H]1OP(=O)(O)O)[C@@H](O)C(=O)NCCC(=O)NCCSC(=O)c1ccc(O)cc1 [4-HB-CoA, 4-hydroxybenzoyl-CoA]
[2]
  steady-state kcat: 18 s⁻¹
[3]; H2O/D2O
  pH independent isotope effect from ratio of C1 values: 3.8
  pH independent isotope effect from ratio of C2 values: 3.7
[3]; buffered D2O
  C1 (pH independent kcat plateau): 1.3 ± 0.2
  C2 (pH independent kcat plateau): 15 ± 1
  first break in kcat pH profile: 5.1 ± 0.1
  second break in kcat pH profile: 8.0 ± 0.1
[3]; buffered H2O
  C1 (pH independent kcat plateau): 5.0 ± 0.1
  C2 (pH independent kcat plateau): 55 ± 4
  first break in kcat pH profile: 5.15 ± 0.09
  second break in kcat pH profile: 7.70 ± 0.08
[3]; pH independent
  D2O solvent kinetic isotope effect (SKIE) on kcat: 3.7–3.8
[4]
  Kd: 0.2 µM
  koff: 13 ± 5 s⁻¹
  kon: 6.5e+07 ± 2e+06 M⁻¹ s⁻¹
[4]; 5.0 µM 4-HB-CoA (b38 prints 4.0 µM), pH 7.5, 25 °C
  kobs (apparent pseudo-first order binding rate constant): 280 ± 30 s⁻¹
[4]; summary value in Conclusions
  substrate-binding rate k1: ~ 70 µM^−1s^−1
D17N thioesterase
  Kd: 0.14 µM

## CC(C)(COP(=O)(O)OP(=O)(O)OC[C@H]1O[C@@H](n2cnc3c(N)ncnc32)[C@H](O)[C@@H]1OP(=O)(O)O)[C@@H](O)C(=O)NCCC(=O)NCCSCC(=O)c1ccc(O)cc1 [4-HP-CoA, 4-hydroxyphenacyl-CoA]
[4]
  Kd: 0.33 µM
  koff: 20 ± 5 s⁻¹
  kon: 5.9e+07 ± 1e+06 M⁻¹ s⁻¹
[4]; 5.3 µM 4-HP-CoA, 50 mM K+HEPES pH 7.5, 25 °C
  kobs (apparent pseudo-first order binding rate constant): 350 ± 4 s⁻¹

## CC(C)(COP(=O)(O)OP(=O)(O)OC[C@H]1O[C@@H](n2cnc3c(N)ncnc32)[C@H](O)[C@@H]1OP(=O)(O)O)[C@@H](O)C(=O)NCCC(=O)NCCS [CoA, coenzyme A]
[1]
  Ki: 250 ± 70 µM
[1]; noncompetitive inhibition of 4-HB-CoA hydrolysis, pH 7.5, 25 °C
  Kii (intercept inhibition constant): 900 ± 300 µM
[5]
  Kd: 300 µM
[6]
  Kd: 300 µM
[7]
  Kd: 300 µM
[8]
  pKa of the conjugate acid: 9.7

— article PMC3286601 (Biochemistry, 2012)
